Results published in patent EP3086659B1, “NUTRITIONAL COMPOSITION FOR THE PREVENTION AND TREATMENT OF COPD AND RELATED SYMPTOMS” (Thompson S.r.L., priority 2013, dated 2015).
Where two headings read alike, the source gives them in different places.

Experiments:
[1] = Clinical study on volunteers: blood (serum) concentration and pharmacokinetic parameters of curcumin after oral administration; assay type: in vivo, healthy volunteers
Experimental: Subsequently, up to 1 h, a rapid decrease is observed followed by a gradual decline to 0 in the next three hours. The following Table lists the pharmacokinetic parameters (mean ± SEM). Table
The maximum serum concentration, when administered alone, was just 0.006 µg/ml 1 hour after administration, while in combination with piperine, the maximum serum concentration (Cmax) had increased to 0.18 µg/ml and was reached earlier at 0.75 h from the administration. The volume of distribution (Vd) and the total clearance value (CI) were not calculated for curcumin administered alone as it was not possible to determine the serum levels in most of the measurements of the greater number of subjects. […] 4 and in the preceding table reflect an increase in the bioavailability of curcumin equal to 2000% in the subjects treated with the combination of curcumin and piperine.

[2] = system: Nrf2; experiment: Expression of Nrf2 protein in nuclear extracts (Western blot); assay type: cell-based, Human; settings: 15 µM, after one hour up to 12h, three independent Western blots
Excerpt: Curcumin (CUR), N-acetyl-L-cysteine (NAC) and glutathione in reduced (GSH) and oxidised (GSSG) form and other reagents were supplied by Sigma. Human alveolar epithelial cells A549 were purchased from American Type Culture Collection (ATCC CCL-185). […] The combination of NAC and CUR induced a slightly higher level of Nrf2 expression.

[3] = system: Human alveolar epithelial cells A549; experiment: Determination of intracellular glutathione (GSH and GSSG), glutathione reductase-recycling analysis; assay type: cell-based; settings: different concentrations (0-50 µM), 6 hours
Experimental: Curcumin (CUR), N-acetyl-L-cysteine (NAC) and glutathione in reduced (GSH) and oxidised (GSSG) form and other reagents were supplied by Sigma. Human alveolar epithelial cells A549 were purchased from American Type Culture Collection (ATCC CCL-185). Levels of reduced (GSH) and oxidised (GSSG) Glutathione were measured after exposure of the cells for 6 hours to curcumin, NAC and curcumin and NAC association (ratio 1/1) using the method already described in Calabrese et al. 1998; Motterlini et al. 2000a). Cells harvested in cold PBS were frozen-thawed three times and an aliquot of this suspension was added to a buffer solution containing […] of EDTA and 10 mM of 5,5-dithiobis- (2-nitrobenzoic acid). The total glutathione was measured by spectroscopy (optical density of 412 nm) using the glutathione reductase-recycling analysis. In order to determine the quantity of GSSG, an aliquot of the cell suspension was added to an equal volume of buffer containing EDTA and N-ethylmaleimide (10 mM). The sample was mixed and centrifuged and the supernatant was passed through a Sep-Pak C18 cartridge (Waters, Milford, MA) to remove the excess of N-ethylmaleimide. […] Intracellular glutathione was determined by comparison with a standard curve obtained with standard solutions of GSH and GSSG and was expressed as nmoles/mg protein. […]

[4] = system: HO-1; experiment: HO-1 mRNA expression by quantitative real-time PCR compared to GAPDH; assay type: cell-based, Human; settings: 15 µM, 6 h
Excerpt: (§1) Curcumin (CUR), N-acetyl-L-cysteine (NAC) and glutathione in reduced (GSH) and oxidised (GSSG) form and other reagents were supplied by Sigma. Human alveolar epithelial cells A549 were purchased from American Type Culture Collection (ATCC CCL-185). […] GRX is a key enzyme in the regulation of the cellular oxidative state, being responsible for the regeneration of GSH from GSSG and in the regeneration of dehydroascorbate.

[5] = system: Nrf2; experiment: Nrf2 mRNA expression by quantitative real-time PCR compared to GAPDH; assay type: cell-based, Human; settings: 15 µM, 6 h
Excerpt: as §1

[6] = system: glutathione reductase (GRX); experiment: Glutathione reductase (GRX) mRNA expression by quantitative real-time PCR compared to GAPDH; assay type: cell-based, Human; settings: 15 µM, 6 h
Excerpt: as §1

SMILES	Tmax ([1]; human, 2 g, serum curcumin, oral administration, healthy volunteers (n = 8), mean ± SEM)	Cmax ([1]; human, 2 g, serum curcumin, oral administration, healthy volunteers (n = 8), mean ± SEM, read-out: Cmax)	Serum levels of curcumin ([1]; oral, 2 g of curcumin alone or with 20 mg of piperine, measurements up to 0.75 h)	Cmax ([1]; serum curcumin, oral administration, healthy volunteers (n = 8), mean ± SEM)	AUC(0-∞) ([1]; serum curcumin, oral administration, healthy volunteers (n = 8), trapezoidal method, mean ± SEM)	expression of the protein Nrf2 in the nucleic extracts [2]	levels of GSSG [3]	intracellular GSH ([3]; dose-dependent)	HO-1 mRNA [4]	Nrf2 mRNA [5]	glutathione reductase (GRX) mRNA [6]
COc1cc(/C=C/C(=O)CC(=O)/C=C/c2ccc(O)c(OC)c2)ccc1O [Curcumin, (1E, 6E)-1,7-bis-(4-hydroxy-3-methoxyphenyl)-epta-1,6-dien-3,5-dione]	1 h	6 ng/mL	very low or undetectable	6 ± 5 ng/mL	0.004 µg/h/mL	–	–	–	–	–	–
CC(=O)N[C@@H](CS)C(=O)O [NAC, N-acetyl-L-cysteine]	–	–	–	–	–	not able to induce an increase	did not increase	increase of GSH	not active	not active	able to induce GRX significantly
